Data from patent US10494376B2, “Tetrahydroisoquinoline derived PRMT5-inhibitors” (CTXT PTY LTD, priority 2014, dated 2019).
pIC50: −log10 of the molar value. Where a name gives a salt, the structure may show the parent alone. Read-outs that look alike come from different tables or passages of the source.

Tests used:
[1] = target: T1, Full-length PRMT5 enzyme (NCBI Reference sequence NP_006100.2) co-expressed with His6-MEP50 (Homo sapiens (Human), UniProt O14744); experiment: PRMT5 Biochemical Assay; conditions: 200 nM peptide substrate, 1 μM S-Adenosyl methionine, 4 hours at 37° C., Transcreener EPIGEN fluorescence polarisation
Experimental: Compounds of the invention may be tested for in vitro activity in the following assay: A histone H4 derived peptide is used as substrate (amino acid sequence: […]N H2). Full-length PRMT5 enzyme (NCBI Reference sequence NP_006100.2) was co-expressed with His6-MEP50 in insect cells and purified via Nickel immobilized metal affinity and gel filtration chromatography (“the enzyme”).
The 6 μL assay reactions are run in Greiner brand black 384-well low volume plates. All reactions contained assay buffer (phosphate buffered saline, 0.01% (v/v) Tween-20, 0.01% (w/v) albumin from chicken egg white, 1 mM dithiothreitol, 200 nM peptide substrate, 1 μM S-Adenosyl methionine, and 15 ng/reaction enzyme, with the enzyme being omitted from negative control reactions. Compounds were added in a volume of 100 nL from dilution series prepared in DMSO, positive and negative control reactions receiving the same volume DMSO without compound. The plates were sealed with adhesive seals and incubated for 4 hours at 37° C. Reaction progress was measured using the Transcreener™ EPIGEN methyltransferase assay (BellBrook Labs, Madison, Wis.) as recommended by the manufacturer. To each reaction 2 μL detection mix were added, containing coupling enzymes, fluorescence polarisation tracer, and AMP antibody. Plates were incubated for 90 min before being read on a PerkinElmer EnVision™ plate reader in fluorescence polarisation mode. IC50 values were obtained from the raw readings by calculating percent inhibition (%1) for each reaction relative to controls on the same plate (% I=(I−CN)/(CP−CN) where CN/CP are the averages of the negative/positive reactions, respectively), then fitting the % I data vs. compound concentration [I] to % I=(A+((B−A)/(1+((C/[I])^D)))) where A is the lower asymptote, B is the upper asymptote, C is the IC50 value, and D is the slope.

[2] = system: symmetrical dimethylation of arginine (Di-Methyl Histone H4R3) in cell line TE11; experiment: PRMT5 Biomarker Assay (symmetrical dimethylation of arginine, Di-Methyl Histone H4R3 ELISA); assay type: cell-based; conditions: Homo sapiens, TE-11; TE11 cells, 72 h incubation, EpiQuik ELISA, corrected for total protein
Experimental: (§1) Compounds of the invention may be tested for potency to inhibit symmetrical dimethylation of arginine in the following assay:
The cell line TE11 was seeded at a density of 12,000 cells per well in 96 well tissue culture plates in DME medium and 10% foetal bovine serum, and allowed to adhere overnight under standard culture conditions (37° C., 5% CO2). Compound dilutions prepared in DMSO were added to the medium, with negative control wells reserved for treatment with DMSO only and positive controls receiving a potent PRMT5 inhibitor. The concentration of the inhibitor had been previously determined to give maximum inhibition of the methylation. After incubation for 72 h, cells were washed twice in ice-cold PBS, lysed in lysis buffer (20 mM Tris pH 7.4, 135 mM NaCl, 1.5 mM MgCl2, 1 mM EGTA, 10% glycerol and 1% Triton-X100), centrifuged at 15,000×g and the supernatants collected for subsequent analysis. The methylation level was determined using the EpiQuik™ Global Di-Methyl Histone H4R^3 Quantification ELISA Kit (Epigentek, Farmingdale, N.Y.) as per the manufacturer's recommendations; in parallel the total protein amount in the lysate was quantified using a Lowry protein assay. […]

[3] = target: T1, Full-length PRMT5 enzyme (NCBI Reference sequence NP_006100.2) co-expressed with His6-MEP50; experiment: Revised PRMT5 Biochemical Assay; conditions: 1 μM peptide substrate, 1 μM S-Adenosyl methionine, 4 hours at 37 degree Celsius, Transcreener EPIGEN fluorescence polarisation
In short: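 Full-length PRMT5 co-expressed with His6-MEP50 in insect cells (15 ng/reaction) was run with 1 μM H4-derived peptide and 1 μM SAM in PBS, 0.01% Tween-20, 0.01% albumin and 1 mM DTT for 4 h at 37 °C. Product was read by Transcreener EPIGEN fluorescence polarisation, and IC50 came from a 4-parameter fit.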

[4] = system: symmetrical dimethylation of arginine (Di-Methyl Histone H4 Arginine 3) in cell line TE11; experiment: Revised PRMT5 Biomarker Assay (Di-Methyl Histone H4 Arginine 3 immunofluorescence); assay type: cell-based; conditions: Homo sapiens, TE-11, TE11 cells, 72 hours
Experimental: as §1
The cell line TE11 was seeded at a density of 6,000 cells per well in 96 well optical quality tissue culture plates in DME medium and 10% foetal bovine serum, and allowed to adhere for 5 hours under standard culture conditions (37 degree Celsius, 5% CO2). […] After incubation for 72 hours, the cells were fixed with 3.7% formaldehyde in PBS for 30 minutes at room temperature, washed with phosphate buffer saline and blocked with Odyssey blocking buffer (LI-COR, Lincoln, Nebr.). Rabbit anti-Di-Methyl Histone H4 Arginine 3 specific antibody (Epigentek) in Odyssey blocking buffer was added and incubated for 14 hours at 4 degree Celsius. […] Alternatively, the plates were imaged on a PerkinElmer Phenix high content imaging platform. […] The resulting mean intensity per cell was directly converted to percent inhibition as outlined above (IC50, imager based).

[5] = PerkinElmer Envision fluorescence intensity, corrected for Hoechst 33342, read-out: IC50 - plate-reader based

T1 sequence (O14744 whole entry): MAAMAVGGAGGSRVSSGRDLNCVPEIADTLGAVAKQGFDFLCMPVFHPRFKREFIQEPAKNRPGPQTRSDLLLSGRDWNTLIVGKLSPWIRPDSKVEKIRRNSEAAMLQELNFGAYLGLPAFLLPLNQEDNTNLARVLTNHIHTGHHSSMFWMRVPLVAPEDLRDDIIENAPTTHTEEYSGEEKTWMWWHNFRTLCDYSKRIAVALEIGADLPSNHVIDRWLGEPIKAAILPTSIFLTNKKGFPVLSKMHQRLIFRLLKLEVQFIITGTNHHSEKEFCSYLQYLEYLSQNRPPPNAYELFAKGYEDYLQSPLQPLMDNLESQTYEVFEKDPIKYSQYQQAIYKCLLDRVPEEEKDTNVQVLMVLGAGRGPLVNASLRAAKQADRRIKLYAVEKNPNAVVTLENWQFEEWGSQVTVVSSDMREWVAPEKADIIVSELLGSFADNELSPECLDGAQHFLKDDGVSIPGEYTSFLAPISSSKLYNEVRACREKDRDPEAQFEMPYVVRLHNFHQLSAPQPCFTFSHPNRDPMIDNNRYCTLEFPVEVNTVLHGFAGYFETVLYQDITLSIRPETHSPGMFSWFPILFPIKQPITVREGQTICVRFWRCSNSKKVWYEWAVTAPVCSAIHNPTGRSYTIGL
T1 sequence (Q9BQA1 whole entry partner): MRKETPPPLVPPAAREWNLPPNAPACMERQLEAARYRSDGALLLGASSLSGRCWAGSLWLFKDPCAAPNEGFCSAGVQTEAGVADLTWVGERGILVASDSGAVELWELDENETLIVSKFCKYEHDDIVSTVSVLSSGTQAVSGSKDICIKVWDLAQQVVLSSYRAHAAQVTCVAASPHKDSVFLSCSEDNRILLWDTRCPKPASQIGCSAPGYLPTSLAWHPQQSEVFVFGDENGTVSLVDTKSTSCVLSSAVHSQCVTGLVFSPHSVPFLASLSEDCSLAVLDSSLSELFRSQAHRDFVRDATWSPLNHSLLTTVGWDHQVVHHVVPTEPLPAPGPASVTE

Compound | pIC50 [1] | pIC50 [2] | pIC50 [3] | pIC50 [4, 5] | pIC50 ([4]; PerkinElmer Phenix high content imaging, mean intensity per cell, read-out: IC50 - image based)
O=C(NCC(O)C1Cc2ccccc2CN1)c1ccc(C(=O)N2CCOCC2)cc1 (stereo not shown) [Example 2, N-(2-hydroxy-2-(1,2,3,4-tetrahydroisoquinolin-3-yl)ethyl)-4-(morpholine-4-carbonyl)benzamide] | 6.12 | 8.14 |  |  | 
O=C(NCC(O)CC1Cc2ccccc2CN1)c1ccc(C(=O)N2CCOCC2)cc1 (stereo not shown) [Example 1, N-(2-Hydroxy-3-(1,2,3,4-tetrahydroisoquinolin-3-yl)propyl)-4-(morpholine-4-carbonyl)benzamide] | 5.33 | 6.02 |  |  | 
O=C(NC[C@H](O)[C@H]1Cc2ccccc2CN1)c1ccc(C(=O)N2CCOCC2)cc1 [Example 53, N—((S)-2-hydroxy-2-((R)-1,2,3,4-tetrahydroisoquinolin-3-yl)ethyl)-4-(morpholine-4-carbonyl)benzamide hydrochloride] | 4.66 |  | 4.67 |  | 
O=C(NC[C@@H](O)[C@@H]1Cc2ccccc2CN1)c1ccc(C(=O)N2C3CCC2COC3)cc1 [Example 49, 4-(3-Oxa-8-azabicyclo[3.2.1]octane-8-carbonyl)-N—((R)-2-hydroxy-2-((S)-1,2,3,4-tetrahydroisoquinolin-3-yl)ethyl)benzamide hydrochloride] |  |  | 7.42 | 8.22 | 9.00
CCOc1ccccc1C(=O)NC[C@@H](O)[C@@H]1Cc2ccccc2CN1 [Example 8, 2-Ethoxy-N-((R)-2-hydroxy-2-((S)-1,2,3,4-tetrahydroisoquinolin-3-yl)ethyl)benzamide] |  |  | 4.78 | 5.63 | 
O=C(NC[C@@H](O)[C@@H]1Cc2ccccc2CN1)c1ccc(C(=O)N2C3CCCC2COC3)cc1 [Example 103, 4-(3-Oxa-9-azabicyclo[3.3.1]nonane-9-carbonyl)-N—((R)-2-hydroxy-2-((S)-1,2,3,4-tetrahydroisoquinolin-3-yl)ethyl)benzamide] |  |  | 7.19 | 8.40 | 
